Measured values: PubChem BioAssay (NCI)
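48-hour exposure; five concentrations; linearly interpolated endpoints. TGI is the concentration that stops growth completely.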

Legend:
Assay in all cases: growth of human tumour cells (NCI), 48 h
786-0 renal = system: 786-0 renal
A498 renal = system: A498 renal
A549 NSCLC = system: A549 NSCLC
ACHN renal = system: ACHN renal
BT-549 breast = system: BT-549 breast
CAKI-1 renal = system: CAKI-1 renal
CCRF-CEM leukemia = system: CCRF-CEM leukemia
COLO 205 colon = system: COLO 205 colon
DU-145 prostate = system: DU-145 prostate
EKVX NSCLC = system: EKVX NSCLC
HCC-2998 colon = system: HCC-2998 colon
HCT-116 colon = system: HCT-116 colon
HCT-15 colon = system: HCT-15 colon
HL-60(TB) leukemia = system: HL-60(TB) leukemia
HOP-92 NSCLC = system: HOP-92 NSCLC
HS 578T breast = system: HS 578T breast
HT29 colon = system: HT29 colon
IGROV1 ovarian = system: IGROV1 ovarian
K-562 leukemia = system: K-562 leukemia
KM12 colon = system: KM12 colon
LOX IMVI melanoma = system: LOX IMVI melanoma
M14 melanoma = system: M14 melanoma
MALME-3M melanoma = system: MALME-3M melanoma
MCF7 breast = system: MCF7 breast
MDA-MB-231 breast = system: MDA-MB-231 breast
MDA-MB-435 = system: MDA-MB-435
MDA-N = system: MDA-N
MOLT-4 leukemia = system: MOLT-4 leukemia
NCI-H226 lung = system: NCI-H226 lung
NCI-H23 lung = system: NCI-H23 lung
NCI-H460 lung = system: NCI-H460 lung
NCI-H522 lung = system: NCI-H522 lung
NCI/ADR-RES ovarian = system: NCI/ADR-RES ovarian
OVCAR-4 ovarian = system: OVCAR-4 ovarian
OVCAR-5 ovarian = system: OVCAR-5 ovarian
OVCAR-8 ovarian = system: OVCAR-8 ovarian
PC-3 prostate = system: PC-3 prostate
RPMI-8226 leukemia = system: RPMI-8226 leukemia
RXF 393 renal = system: RXF 393 renal
SF-268 CNS = system: SF-268 CNS
SF-539 CNS = system: SF-539 CNS
SK-MEL-2 melanoma = system: SK-MEL-2 melanoma
SK-MEL-28 melanoma = system: SK-MEL-28 melanoma
SK-MEL-5 melanoma = system: SK-MEL-5 melanoma
SN12C renal = system: SN12C renal
SNB-19 CNS = system: SNB-19 CNS
SNB-75 CNS = system: SNB-75 CNS
SR leukemia = system: SR leukemia
SW-620 colon = system: SW-620 colon
T-47D breast = system: T-47D breast
TK-10 renal = system: TK-10 renal
U251 CNS = system: U251 CNS
UACC-257 melanoma = system: UACC-257 melanoma
UACC-62 melanoma = system: UACC-62 melanoma
UO-31 renal = system: UO-31 renal
HOP-62 NSCLC = system: HOP-62 NSCLC
OVCAR-3 ovarian = system: OVCAR-3 ovarian
SF-295 CNS = system: SF-295 CNS
SK-OV-3 ovarian = system: SK-OV-3 ovarian

O=C1C(Cl)C2(CC(/C=C/c3cccs3)=NN2c2cccc(S(=O)(=O)O)c2)N1c1nc2ccccc2s1 (centres undefined)
TGI (786-0 renal): > 100 µM
TGI (A498 renal): > 100 µM
TGI (A549 NSCLC): > 100 µM
TGI (ACHN renal): > 100 µM
TGI (BT-549 breast): > 100 µM
TGI (CAKI-1 renal): > 100 µM
TGI (CCRF-CEM leukemia): 78.2 µM
TGI (COLO 205 colon): > 100 µM
TGI (DU-145 prostate): > 100 µM
TGI (EKVX NSCLC): > 100 µM
TGI (HCC-2998 colon): > 100 µM
TGI (HCT-116 colon): > 100 µM
TGI (HCT-15 colon): > 100 µM
TGI (HL-60(TB) leukemia): > 100 µM
TGI (HOP-92 NSCLC): > 100 µM
TGI (HS 578T breast): > 100 µM
TGI (HT29 colon): > 100 µM
TGI (IGROV1 ovarian): > 100 µM
TGI (K-562 leukemia): > 100 µM
TGI (KM12 colon): > 100 µM
TGI (LOX IMVI melanoma): > 100 µM
TGI (M14 melanoma): > 100 µM
TGI (MALME-3M melanoma): > 100 µM
TGI (MCF7 breast): > 100 µM
TGI (MDA-MB-231 breast): > 100 µM
TGI (MDA-MB-435): > 100 µM
TGI (MDA-N): > 100 µM
TGI (MOLT-4 leukemia): > 100 µM
TGI (NCI-H226 lung): > 100 µM
TGI (NCI-H23 lung): > 100 µM
TGI (NCI-H460 lung): > 100 µM
TGI (NCI-H522 lung): 38.5 µM
TGI (NCI/ADR-RES ovarian): > 100 µM
TGI (OVCAR-4 ovarian): > 100 µM
TGI (OVCAR-5 ovarian): > 100 µM
TGI (OVCAR-8 ovarian): > 100 µM
TGI (PC-3 prostate): > 100 µM
TGI (RPMI-8226 leukemia): > 100 µM
TGI (RXF 393 renal): > 100 µM
TGI (SF-268 CNS): > 100 µM
TGI (SF-539 CNS): > 100 µM
TGI (SK-MEL-2 melanoma): > 100 µM
TGI (SK-MEL-28 melanoma): > 100 µM
TGI (SK-MEL-5 melanoma): > 100 µM
TGI (SN12C renal): > 100 µM
TGI (SNB-19 CNS): > 100 µM
TGI (SNB-75 CNS): > 100 µM
TGI (SR leukemia): > 100 µM
TGI (SW-620 colon): > 100 µM
TGI (T-47D breast): > 100 µM
TGI (TK-10 renal): > 100 µM
TGI (U251 CNS): > 100 µM
TGI (UACC-257 melanoma): > 100 µM
TGI (UACC-62 melanoma): > 100 µM
TGI (UO-31 renal): 23.8 µM

O=[N+]([O-])/C(C(Cl)=C(Cl)Cl)=C(/Br)SCc1ccccc1
TGI (786-0 renal): 4.64 µM
TGI (A498 renal): 15.2 µM
TGI (A549 NSCLC): 15.2 µM
TGI (ACHN renal): 6.85 µM
TGI (BT-549 breast): 4.22 µM
TGI (CAKI-1 renal): 3.65 µM
TGI (CCRF-CEM leukemia): 0.633 µM
TGI (COLO 205 colon): 3.43 µM
TGI (DU-145 prostate): 25.7 µM
TGI (EKVX NSCLC): 12.5 µM
TGI (HCC-2998 colon): 21.1 µM
TGI (HCT-116 colon): 4.13 µM
TGI (HCT-15 colon): 4.98 µM
TGI (HL-60(TB) leukemia): 0.905 µM
TGI (HOP-62 NSCLC): 41.7 µM
TGI (HOP-92 NSCLC): 5.28 µM
TGI (HS 578T breast): 47.7 µM
TGI (HT29 colon): 4.92 µM
TGI (IGROV1 ovarian): 13.3 µM
TGI (K-562 leukemia): 2.04 µM
TGI (KM12 colon): 28.5 µM
TGI (LOX IMVI melanoma): 4.24 µM
TGI (M14 melanoma): 5.79 µM
TGI (MALME-3M melanoma): 11.9 µM
TGI (MCF7 breast): 9.11 µM
TGI (MDA-MB-231 breast): 6.06 µM
TGI (MDA-MB-435): 2.94 µM
TGI (MDA-N): 4.04 µM
TGI (MOLT-4 leukemia): 1.03 µM
TGI (NCI-H226 lung): 14.9 µM
TGI (NCI-H23 lung): 12 µM
TGI (NCI-H460 lung): 24.1 µM
TGI (NCI-H522 lung): 4.49 µM
TGI (NCI/ADR-RES ovarian): 15.3 µM
TGI (OVCAR-3 ovarian): 5.02 µM
TGI (OVCAR-4 ovarian): 8.19 µM
TGI (OVCAR-5 ovarian): 18.5 µM
TGI (PC-3 prostate): 7.21 µM
TGI (RPMI-8226 leukemia): 3.39 µM
TGI (RXF 393 renal): 4.01 µM
TGI (SF-268 CNS): 7.2 µM
TGI (SF-295 CNS): 31.5 µM
TGI (SF-539 CNS): 21.4 µM
TGI (SK-MEL-2 melanoma): 13.8 µM
TGI (SK-MEL-28 melanoma): 4.09 µM
TGI (SK-MEL-5 melanoma): 16.4 µM
TGI (SK-OV-3 ovarian): 36.4 µM
TGI (SN12C renal): 5.8 µM
TGI (SNB-19 CNS): 27.7 µM
TGI (SNB-75 CNS): 9.02 µM
TGI (SR leukemia): 4.2 µM
TGI (SW-620 colon): 4.16 µM
TGI (T-47D breast): 13.5 µM
TGI (TK-10 renal): 9.61 µM
TGI (U251 CNS): 14.5 µM
TGI (UACC-257 melanoma): 11.3 µM
TGI (UACC-62 melanoma): 16.1 µM
TGI (UO-31 renal): 5.72 µM

O=c1oc2ccc(Cl)cc2c2ccccc12
TGI (786-0 renal): > 100 µM
TGI (A498 renal): > 100 µM
TGI (A549 NSCLC): > 100 µM
TGI (ACHN renal): > 100 µM
TGI (BT-549 breast): 37 µM
TGI (CAKI-1 renal): > 100 µM
TGI (CCRF-CEM leukemia): > 100 µM
TGI (COLO 205 colon): > 100 µM
TGI (DU-145 prostate): > 100 µM
TGI (EKVX NSCLC): > 100 µM
TGI (HCC-2998 colon): > 100 µM
TGI (HCT-116 colon): > 100 µM
TGI (HCT-15 colon): > 100 µM
TGI (HL-60(TB) leukemia): > 100 µM
TGI (HOP-62 NSCLC): 45.1 µM
TGI (HOP-92 NSCLC): 93.5 µM
TGI (HS 578T breast): 77.2 µM
TGI (HT29 colon): > 100 µM
TGI (IGROV1 ovarian): > 100 µM
TGI (K-562 leukemia): > 100 µM
TGI (LOX IMVI melanoma): > 100 µM
TGI (M14 melanoma): > 100 µM
TGI (MALME-3M melanoma): > 100 µM
TGI (MCF7 breast): > 100 µM
TGI (MDA-MB-231 breast): 41.2 µM
TGI (MDA-MB-435): > 100 µM
TGI (MDA-N): > 100 µM
TGI (MOLT-4 leukemia): > 100 µM
TGI (NCI-H226 lung): > 100 µM
TGI (NCI-H23 lung): 58.2 µM
TGI (NCI-H460 lung): > 100 µM
TGI (NCI-H522 lung): > 100 µM
TGI (NCI/ADR-RES ovarian): > 100 µM
TGI (OVCAR-3 ovarian): > 100 µM
TGI (OVCAR-4 ovarian): > 100 µM
TGI (OVCAR-5 ovarian): > 100 µM
TGI (OVCAR-8 ovarian): > 100 µM
TGI (PC-3 prostate): > 100 µM
TGI (RPMI-8226 leukemia): > 100 µM
TGI (RXF 393 renal): 58.9 µM
TGI (SF-268 CNS): 50.5 µM
TGI (SF-295 CNS): > 100 µM
TGI (SF-539 CNS): > 100 µM
TGI (SK-MEL-2 melanoma): 50.9 µM
TGI (SK-MEL-28 melanoma): > 100 µM
TGI (SK-MEL-5 melanoma): > 100 µM
TGI (SN12C renal): > 100 µM
TGI (SNB-19 CNS): 45.1 µM
TGI (SNB-75 CNS): 97.4 µM
TGI (SR leukemia): > 100 µM
TGI (SW-620 colon): > 100 µM
TGI (T-47D breast): > 100 µM
TGI (TK-10 renal): > 100 µM
TGI (U251 CNS): 33.7 µM
TGI (UACC-257 melanoma): > 100 µM
TGI (UACC-62 melanoma): > 100 µM
